Results from publication PMC12051030, “Identification of inhibitors of the Salmonella FraB deglycase, a drug target” (FEBS Open Bio, 2025).
Where two headings read alike, the source gives them in different places.

B1: FraB (Salmonella enterica subsp. enterica serovar Typhimurium str. LT2) (protein)
chain: MMGMKETVSNIVTSQAEKGGVKHVYYVACGGSYAAFYPAKAFLEKEAKALTVGLYNSGEFINNPPVALGENAVVVVASHKGNTPETIKAAEIARQHGAPVIGLTWIMDSPLVAHCDYVETYTFGDGKDIAGEKTMKGLLSAVELLQQTEGYAHYDDFQDGVSKINRIVWRACEQVAERAQAFAQEYKDDKVIYTVASGAGYGAAYLQSICIFMEMQWIHSACIHSGEFFHGPFEITDANTPFFFQFSEGNTRAVDERALNFLKKYGRRIEVVDAKELGLSTIKTTVIDYFNHSLFNNVYPVYNRALAEARQHPLTTRRYMWKVEY

Tests used:
FraB [1] = target: T1, FraB (Salmonella enterica subsp. enterica serovar Typhimurium, UniProt Q8ZLD0); settings: previously reported; cited from earlier work
FraB [2] = target: T1, FraB; experiment: FraB assay, Michaelis–Menten kinetics with substrate; assay type: biochemical
Description: The substrate for FraB, 6‐P‐F‐Asp, was synthesized as previously described. FraB activity was monitored as described previously, with the following changes. The final reaction (30 μL) consisted of 25 mM HEPES pH 8 (at 20 °C), 5 mM MgCl2, 0.1 mM ethylene glycol tetraacetic acid (EGTA), 0.5 mM NAD^+, 1 mU G6PD from Leuconostoc mesenteroides (#LS003981; Worthington Biochemicals, Lakewood, NJ, USA), 100 nM His6‐FraB, and 0–3 mM 6‐P‐F‐Asp. The reaction mixture without substrate (29 μL) was added to one well of a 384‐well polystyrene white μClear® microplate (#781095; Greiner Bio‐One, Monroe, NC, USA) and incubated at 37 °C for 2 min, prior to the addition of 1 μL substrate to initiate the reaction. NADH generation was monitored using either absorbance (340 nm) or fluorescence (350 nm excitation, 450 nm emission) and with either an INFINITE M1000 PRO (Tecan, Mannedorf, Switzerland) or Synergy H1 (Biotek, Winooski, VT, USA) plate reader. Absorbance/fluorescence was plotted against time and slopes were obtained by linear regression analyses. These slopes were converted into initial velocities by dividing them by either the absorbance extinction coefficient (ε340 = 6,220 M ^−1·cm^−1) or the molar fluorescence determined based on standard curves obtained in different plate readers (23,646 RFUs·μM ^−1, Tecan; 285,108 RFUs·μM ^−1, Biotek; Fig. S2). […]

[3] = substrate: O=C(O)C[C@H](NCC1(O)O[C@H](COP(=O)(O)O)[C@@H](O)[C@@H]1O)C(=O)O; experiment: as above; assay type: biochemical, Salmonella; settings: pH 8.0
Description: The substrate for FraB, 6‐P‐F‐Asp, was synthesized as previously described. FraB activity was monitored as described previously, with the following changes. The final reaction (30 μL) consisted of 25 mM HEPES pH 8 (at 20 °C), 5 mM MgCl2, 0.1 mM ethylene glycol tetraacetic acid (EGTA), 0.5 mM NAD^+, 1 mU G6PD from Leuconostoc mesenteroides (#LS003981; Worthington Biochemicals, Lakewood, NJ, USA), 100 nM His6‐FraB, and 0–3 mM 6‐P‐F‐Asp. The reaction mixture without substrate (29 μL) was added to one well of a 384‐well polystyrene white μClear® microplate (#781095; Greiner Bio‐One, Monroe, NC, USA) and incubated at 37 °C for 2 min, prior to the addition of 1 μL substrate to initiate the reaction. NADH generation was monitored using either absorbance (340 nm) or fluorescence (350 nm excitation, 450 nm emission) and with either an INFINITE M1000 PRO (Tecan, Mannedorf, Switzerland) or Synergy H1 (Biotek, Winooski, VT, USA) plate reader. Absorbance/fluorescence was plotted against time and slopes were obtained by linear regression analyses. These slopes were converted into initial velocities by dividing them by either the absorbance extinction coefficient (ε340 = 6,220 M ^−1·cm^−1) or the molar fluorescence determined based on standard curves obtained in different plate readers (23,646 RFUs·μM ^−1, Tecan; 285,108 RFUs·μM ^−1, Biotek; Fig. S2). These initial velocities (v o) in turn were plotted against [6‐P‐F‐Asp] to obtain Michaelis–Menten curves that were fit to the formula v o = (V max × [S])/(K m + [S]) by Kaleidagraph (Version 4.5.3; Synergy Software, Reading, PA, USA). The activity of recombinant FraB (Fig. S3) was similar to that as reported previously.

[4] = other: newer batches of substrate
[5] = other: representative Michaelis-Menten plot, Fig. S3, curve-fit errors

Row | Molecule | K m (FraB [1]) [µM] | k cat (FraB [1]) [s⁻¹] | k cat/K m (FraB [1]) [min^−1 mM ^−1] | K m (FraB [2]; approximate value used for [S]/K m) | K m (FraB [2]; newer batches of substrate) [mM] | kcat [3, 4] [s⁻¹] | kcat/Km [3, 4] | Km [3, 5] [µM] | kcat [3, 5] [s⁻¹] | kcat/Km [3, 5] [min⁻¹ mM⁻¹]
1 | O=C(O)C[C@H](NCC1(O)O[C@H](COP(=O)(O)O)[C@@H](O)[C@@H]1O)C(=O)O (stereo partly shown) [6‐P‐F‐Asp, 6‐phosphofructose‐aspartate] | 116 ± 12 | 1.05 ± 0.167 | 543 | ~ 40 μM | 0.042 ± 0.007 |  |  |  |  | 
2 | B1 |  |  |  |  |  | 0.95 ± 0.012 | 1,357 min^−1 mM ^−1 | 67 ± 8 | 1.16 ± 0.00317 | 1040
